Measured values published in patent US20240189318A1, “THERAPEUTIC REGIMENS OF AN INHIBITOR OF THE ENZYMATIC ACTIVITY OF BRG1 AND BRM” (FOGHORN THERAPEUTICS INC., priority 2021, published 2024).
Where two headings read alike, the source gives them in different places.

Legend:
Type in all cases: in vitro ADME
CYP3A4 mRNA = assay: CYP mRNA level (qRT-PCR) in cultured human hepatocytes, CYP3A4; settings: 72 hours
CYP2b1 mRNA = assay: CYP mRNA expression in cultured rat hepatocytes, CYP2b1; settings: 0.3 to 100 nM
OAT1 = biological target: T1, OAT1 (Homo sapiens, UniProt Q4U2R8); assay: Transporter inhibition in MDCK-II cells, OAT1; settings: for IC50: probe p-aminohippurate 2 μM
T1 construct: expressed in transfected cells; host or cells: MDCK-II
T1 sequence (Q4U2R8 1-563): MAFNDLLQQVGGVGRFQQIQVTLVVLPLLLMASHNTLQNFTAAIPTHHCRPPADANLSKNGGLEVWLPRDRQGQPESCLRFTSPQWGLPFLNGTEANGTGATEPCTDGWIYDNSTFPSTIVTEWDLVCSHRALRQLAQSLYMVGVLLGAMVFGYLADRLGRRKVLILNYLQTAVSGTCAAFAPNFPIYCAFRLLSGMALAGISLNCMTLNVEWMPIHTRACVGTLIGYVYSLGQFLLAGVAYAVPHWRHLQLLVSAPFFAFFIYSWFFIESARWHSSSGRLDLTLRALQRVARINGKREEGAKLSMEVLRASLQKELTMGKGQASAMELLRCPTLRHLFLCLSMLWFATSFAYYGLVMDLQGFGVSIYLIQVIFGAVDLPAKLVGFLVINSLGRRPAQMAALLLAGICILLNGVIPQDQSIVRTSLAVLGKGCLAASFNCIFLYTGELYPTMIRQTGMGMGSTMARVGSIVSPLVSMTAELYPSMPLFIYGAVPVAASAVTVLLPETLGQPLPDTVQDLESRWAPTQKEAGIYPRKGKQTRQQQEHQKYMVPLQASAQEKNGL

COC[C@H](NC(=O)c1ccn(S(C)(=O)=O)c1)C(=O)Nc1nc(-c2cccc(N3C[C@@H](C)O[C@@H](C)C3)n2)cs1 [compound of formula (I), N-((S)-1-((4-(6-(cis-2,6-dimethylmorpholino)pyridin-2-yl)thiazol-2-yl)amino)-3-methoxy-1-oxopropan-2-yl)-1-(methylsulfonyl)-1H-pyrrole-3-carboxamide]
concentrations at which CYP3A4 mRNA expression was down-regulated (>50% decrease) (CYP3A4 mRNA): ≥ 1 nM | concentrations at which CYP2b1 mRNA expression was decreased ≥50% (CYP2b1 mRNA): ≥ 10 nM | IC50 (OAT1; OAT1, corrected for difference between measured and nominal concentrations, read-out: IC50 corrected for non-specific binding): > 11.8 µM | IC50 (OAT1; OAT1 in MDCK-II cells, read-out: Estimated IC50 using nominal concentrations): > 50 µM | inhibition toward OAT1 (OAT1; nominal test concentrations up to 50 μM): minimal inhibition
